Experimental data: US8471005B2 (Cephalon, Inc., priority 2008, dated 2013)
Read-outs that look alike come from different tables or passages of the source.

How the values were obtained:
[1] = target: T1, JAK2 (Homo sapiens, UniProt O60674); assay: Recombinant Human JAK2 Kinase Assay (TRF); assay type: biochemical; conditions: read-out: JAK2 Potency
T1 construct: host or cells: baculovirus expression system
Outline: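 TRF read-out: Eu-N1 PY100 anti-phosphotyrosine antibody detects product. Enzyme is baculovirus-expressed JAK2 at 15 ng/ml; substrate is a biotinyl 15-mer peptide bound to Neutravidin-coated wells. Buffer 20 mM HEPES pH 7.2, 0.2 μM ATP, 1 mM MnCl2, 0.1% BSA, 2.5% DMSO final; 20 min, RT.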

[2] = target: T2, ALK (Homo sapiens, UniProt Q9UM73); assay: ALK Kinase Assay (ELISA/TRF, PLC-γ substrate); assay type: biochemical; conditions: read-out: ALK Potency
T2 construct: host or cells: baculovirus expression system
Outline: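 PLC-γ substrate coated at 10 μg/mL in TBS; reaction started with 30 ng/ml ALK, run 15 min at 37° C. Phosphoproduct detected by TRF with Eu-N1-labeled PT66 anti-phosphotyrosine antibody. IC50 from sigmoidal variable-slope fit of percent inhibition versus log concentration.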

[3] = JAK2 kinase inhibition, 0.2 μM ATP
[4] = ALK kinase inhibition, 1 μM ATP

T1 sequence (O60674 whole entry): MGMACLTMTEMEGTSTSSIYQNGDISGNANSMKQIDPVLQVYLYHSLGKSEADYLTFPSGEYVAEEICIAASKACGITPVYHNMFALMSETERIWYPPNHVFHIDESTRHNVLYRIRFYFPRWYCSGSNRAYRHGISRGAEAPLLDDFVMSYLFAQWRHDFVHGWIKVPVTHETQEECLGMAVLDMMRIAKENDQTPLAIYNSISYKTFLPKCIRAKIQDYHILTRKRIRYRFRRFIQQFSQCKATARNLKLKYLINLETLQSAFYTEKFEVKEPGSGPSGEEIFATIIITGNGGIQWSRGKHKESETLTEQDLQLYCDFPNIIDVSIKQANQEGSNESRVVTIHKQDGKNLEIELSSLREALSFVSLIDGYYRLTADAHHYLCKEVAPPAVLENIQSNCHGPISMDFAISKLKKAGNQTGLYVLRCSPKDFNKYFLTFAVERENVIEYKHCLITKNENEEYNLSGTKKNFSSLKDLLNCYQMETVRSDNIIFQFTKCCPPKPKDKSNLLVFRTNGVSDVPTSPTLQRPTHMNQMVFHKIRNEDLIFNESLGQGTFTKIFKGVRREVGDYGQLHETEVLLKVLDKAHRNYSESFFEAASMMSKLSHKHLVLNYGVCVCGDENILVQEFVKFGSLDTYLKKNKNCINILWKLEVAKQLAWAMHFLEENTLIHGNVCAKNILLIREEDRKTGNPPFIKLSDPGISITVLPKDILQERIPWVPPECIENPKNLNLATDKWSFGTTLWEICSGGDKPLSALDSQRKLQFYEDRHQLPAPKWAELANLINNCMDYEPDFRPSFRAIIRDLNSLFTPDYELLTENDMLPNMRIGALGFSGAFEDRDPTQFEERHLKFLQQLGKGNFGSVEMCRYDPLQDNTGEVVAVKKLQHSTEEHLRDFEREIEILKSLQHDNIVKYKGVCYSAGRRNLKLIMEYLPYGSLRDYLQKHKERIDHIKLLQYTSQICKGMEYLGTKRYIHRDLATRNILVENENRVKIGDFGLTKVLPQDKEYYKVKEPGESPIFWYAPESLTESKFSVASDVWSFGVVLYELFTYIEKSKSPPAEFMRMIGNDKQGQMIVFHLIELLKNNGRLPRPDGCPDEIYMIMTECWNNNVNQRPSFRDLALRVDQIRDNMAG
T2 sequence (Q9UM73 19-1620): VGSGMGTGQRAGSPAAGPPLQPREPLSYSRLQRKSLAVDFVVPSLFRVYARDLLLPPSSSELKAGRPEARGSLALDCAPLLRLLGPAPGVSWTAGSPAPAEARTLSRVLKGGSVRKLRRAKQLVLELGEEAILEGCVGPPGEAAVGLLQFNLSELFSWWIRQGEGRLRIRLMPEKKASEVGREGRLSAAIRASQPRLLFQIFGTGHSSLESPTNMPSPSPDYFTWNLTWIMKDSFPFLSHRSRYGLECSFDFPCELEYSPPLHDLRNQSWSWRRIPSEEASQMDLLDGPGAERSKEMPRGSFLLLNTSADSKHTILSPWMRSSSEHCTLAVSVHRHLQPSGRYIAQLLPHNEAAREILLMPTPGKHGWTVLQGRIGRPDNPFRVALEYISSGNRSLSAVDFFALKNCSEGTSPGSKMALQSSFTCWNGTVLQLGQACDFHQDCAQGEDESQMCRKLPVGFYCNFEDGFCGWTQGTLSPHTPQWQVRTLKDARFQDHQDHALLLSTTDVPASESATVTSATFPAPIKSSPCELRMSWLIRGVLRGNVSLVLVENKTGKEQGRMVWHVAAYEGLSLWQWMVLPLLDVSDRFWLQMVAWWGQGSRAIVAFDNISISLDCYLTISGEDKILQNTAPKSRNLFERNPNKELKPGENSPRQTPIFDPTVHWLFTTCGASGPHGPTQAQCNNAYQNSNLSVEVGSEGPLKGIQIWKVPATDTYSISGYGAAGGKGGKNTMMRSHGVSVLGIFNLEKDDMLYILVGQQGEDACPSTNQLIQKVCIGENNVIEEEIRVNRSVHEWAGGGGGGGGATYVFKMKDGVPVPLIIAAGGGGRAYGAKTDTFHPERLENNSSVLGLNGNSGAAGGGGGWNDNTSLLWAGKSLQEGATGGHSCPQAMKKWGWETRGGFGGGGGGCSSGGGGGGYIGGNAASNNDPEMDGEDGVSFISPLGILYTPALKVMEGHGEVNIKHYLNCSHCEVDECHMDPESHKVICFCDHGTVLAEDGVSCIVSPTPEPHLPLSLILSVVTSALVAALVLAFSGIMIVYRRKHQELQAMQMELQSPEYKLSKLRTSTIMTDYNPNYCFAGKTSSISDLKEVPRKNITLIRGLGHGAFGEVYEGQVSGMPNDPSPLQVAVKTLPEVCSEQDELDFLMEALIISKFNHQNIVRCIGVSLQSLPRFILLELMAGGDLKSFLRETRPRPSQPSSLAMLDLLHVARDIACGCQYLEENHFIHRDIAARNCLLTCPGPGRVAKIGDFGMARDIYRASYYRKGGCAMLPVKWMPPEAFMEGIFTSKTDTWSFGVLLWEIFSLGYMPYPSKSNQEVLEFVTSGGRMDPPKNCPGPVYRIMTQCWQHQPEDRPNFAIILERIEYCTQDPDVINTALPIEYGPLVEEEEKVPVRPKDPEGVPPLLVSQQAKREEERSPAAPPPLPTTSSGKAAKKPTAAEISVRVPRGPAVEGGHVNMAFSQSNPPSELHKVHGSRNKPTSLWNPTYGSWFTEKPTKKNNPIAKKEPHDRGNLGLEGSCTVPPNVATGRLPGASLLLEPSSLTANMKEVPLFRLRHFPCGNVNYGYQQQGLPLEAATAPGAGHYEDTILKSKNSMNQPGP

SMILES | IC50 [1, 3] [nM] | IC50 [2, 4] [nM] | IC50 ([1]; JAK2 Kinase Inhibition) [nM] | IC50 ([2]; ALK Kinase Inhibition) [nM]
COc1cc(C2CCN(C(=O)CN(C)C)CC2)ccc1Nc1ncc2ccc(-c3ccccc3OC)n2n1 [Example 815, 2-Dimethylamino-1-(4-{3-methoxy-4-[7-(2-methoxy-phenyl)-pyrrolo[2,1-f][1,2,4]triazin-2-ylamino]-phenyl}-piperidin-1-yl)-ethanone] | 100 to 1000 | < 100 |  | 
COc1cc(C(=O)N2CCN(C)CC2)ccc1Nc1ncc2ccc(-c3ccccc3N(C)S(C)(=O)=O)n2n1 [Example 490, N-(2-{2-[2-Methoxy-4-(4-methyl-piperazine-1-carbonyl)-phenylamino]-pyrrolo[2,1-f][1,2,4]triazin-7-yl}-phenyl)-N-methyl-methanesulfonamide] | 1000 to 10000 | 100 to 1000 |  | 
c1cc(N2CCOCC2)ccc1Nc1ncc2ccc(C3CCCCC3)n2n1 [Example 127, (7-Cyclohexyl-pyrrolo[2,1-f][1,2,4]triazin-2-yl)-(4-morpholin-4-yl-phenyl)-amine] |  |  | < 100 | > 10000
COc1ccc(Cl)cc1-c1ccc2cnc(Nc3ccc(N4CCC(N5CCOCC5)CC4)cc3)nn12 [Example 335, [7-(5-Chloro-2-methoxy-phenyl)-pyrrolo[2,1-f][1,2,4]triazin-2-yl]-[4-(4-morpholin-4-yl-piperidin-1-yl)-phenyl]-amine] |  |  | < 100 | 100 to 1000
c1ccc2c(c1)cc1cnc(Nc3ccc(N4CCOCC4)cc3)nn12 [Example 261, (4-Morpholin-4-yl-phenyl)-[1,2,4]triazino[1,6-a]indol-2-yl-amine] |  |  | < 100 | 100 to 1000
CC(C)C(=O)Nc1cccc(Nc2ncc3ccc(-c4cnn(C)c4)n3n2)c1 [Example 963, N-{3-[7-(1-Methyl-1H-pyrazol-4-yl)-pyrrolo[2,1-f][1,2,4]triazin-2-ylamino]-phenyl}-isobutyramide] | < 100 | 1000 to 10000 |  | 
CCNS(=O)(=O)c1cccc(-c2ccc3cnc(Nc4ccc(C5CCN(C)CC5)cc4)nn23)c1 [Example 907, N-Ethyl-3-{2-[4-(1-methyl-piperidin-4-yl)-phenylamino]-pyrrolo[2,1-f][1,2,4]triazin-7-yl}-benzenesulfonamide] | < 100 | < 100 |  | 
COc1cc(CN2CCN(C(=O)CN)CC2)ccc1Nc1ncc2ccc(-c3ccccc3OC)n2n1 [Example 1244, 2-Amino-1-(4-{3-methoxy-4-[7-(2-methoxy-phenyl)-pyrrolo[2,1-f][1,2,4]triazin-2-ylamino]-benzyl}-piperazin-1-yl)-ethanone] | 100 to 1000 | < 100 |  | 
CC(C)(C)NS(=O)(=O)c1cccc(-c2ccc3cnc(Nc4ccc5c(c4)CS(=O)(=O)C5)nn23)c1 [Example 663, N-tert-Butyl-3-[2-(2,2-dioxo-2,3-dihydro-1H-2$1(6)-benzo[c]thiophen-5-ylamino)-pyrrolo[2,1-f][1,2,4]triazin-7-yl]-benzenesulfonamide] | < 100 | 100 to 1000 |  | 
COc1cc(N2CCC(N3CCOCC3)CC2)ccc1Nc1ncc2ccc(-c3cccc(CCC#N)c3)n2n1 [Example 1159, 3-(3-{2-[2-Methoxy-4-(4-morpholin-4-yl-piperidin-1-yl)-phenylamino]-pyrrolo[2,1-f][1,2,4]triazin-7-yl}-phenyl)-propionitrile] | < 100 | < 100 |  | 
CN1CCN(c2ccc(Nc3ncc4ccc(-c5cccc(CCC#N)c5)n4n3)cc2)CC1 [Example 1142, 3-(3-{2-[4-(4-Methyl-piperazin-1-yl)-phenylamino]-pyrrolo[2,1-f][1,2,4]triazin-7-yl}-phenyl)-propionitrile] | < 100 | < 100 |  | 
COc1cc(C2CCN(C[C@H](O)CO)CC2)ccc1Nc1ncc2ccc(-c3cccc(S(=O)(=O)NC(C)(C)C)c3)n2n1 [Example 695, N-tert-Butyl-3-(2-{4-[1-((S)-2,3-dihydroxy-propyl)-piperidin-4-yl]-2-methoxy-phenylamino}-pyrrolo[2,1-f][1,2,4]triazin-7-yl)-benzenesulfonamide] | 100 to 1000 | < 100 |  | 
CN(c1ccccc1-c1ccc2cnc(Nc3ccc(N4CCOCC4)cc3F)nn12)S(C)(=O)=O [Example 386, N-{2-[2-(2-Fluoro-4-morpholin-4-yl-phenylamino)-pyrrolo[2,1-f][1,2,4]triazin-7-yl]-phenyl}-N-methyl-methanesulfonamide] |  |  | < 100 | 100 to 1000
CN1CCN(C(=O)c2cccc(Nc3ncc4ccc(-c5cccc(Cl)c5)n4n3)c2)CC1 [Example 340, {3-[7-(3-Chloro-phenyl)-pyrrolo[2,1-f][1,2,4]triazin-2-ylamino]-phenyl}-(4-methyl-piperazin-1-yl)-methanone] |  |  | < 100 | 100 to 1000
CN1CCN(CCOc2ccc(Nc3ncc4ccc(-c5cccnc5)n4n3)cc2)CC1 [Example 119, {4-[2-(4-Methyl-piperazin-1-yl)-ethoxy]-phenyl}-(7-pyridin-3-yl-pyrrolo[2,1-f][1,2,4]triazin-2-yl)-amine] |  |  | < 100 | 100 to 1000
CC(C)(C)NS(=O)(=O)c1cccc(-c2ccc3cnc(Nc4ccc5[nH]ncc5c4)nn23)c1 [Example 1315, N-tert-Butyl-3-[2-(1H-indazol-5-ylamino)-pyrrolo[2,1-f][1,2,4]triazin-7-yl]-benzenesulfonamide] | < 100 | 1000 to 10000 |  | 
N#Cc1ccccc1-c1ccc2cnc(Nc3ccc(C4CCN(CC(N)=O)CC4)cc3)nn12 [Example 513, 2-(4-{4-[7-(2-Cyano-phenyl)-pyrrolo[2,1-f][1,2,4]triazin-2-ylamino]-phenyl}-piperidin-1-yl)-acetamide] | < 100 | < 100 |  | 
COc1cc(C2CCCN(C)C2)ccc1Nc1ncc2ccc(-c3ccccc3OC)n2n1 (stereo not shown) [Example 805, [2-Methoxy-4-(1-methyl-piperidin-3-yl)-phenyl]-[7-(2-methoxy-phenyl)-pyrrolo[2,1-f][1,2,4]triazin-2-yl]-amine] | 100 to 1000 | < 100 |  | 
CCN(CC)C1CCN(c2ccc(Nc3ncc4ccc(-c5cccc(S(C)(=O)=O)c5)n4n3)cc2)CC1 [Example 1137, [4-(4-Diethylamino-piperidin-1-yl)-phenyl]-[7-(3-methanesulfonyl-phenyl)-pyrrolo[2,1-f][1,2,4]triazin-2-yl]-amine] | < 100 | 100 to 1000 |  | 
CN1CCN(c2ccc(Nc3ncc4ccc(Nc5ccccc5)n4n3)cc2)CC1 [Example 24, N(2)-[4-(4-Methyl-piperazin-1-yl)-phenyl]-N(7)-phenyl-pyrrolo[2,1-f][1,2,4]triazine-2,7-diamine] |  |  | < 100 | 1000 to 10000
COc1ccc(Cl)cc1-c1ccc2cnc(Nc3cccc(C(=O)N4CCN(C)CC4)c3)nn12 [Example 339, {3-[7-(5-Chloro-2-methoxy-phenyl)-pyrrolo[2,1-f][1,2,4]triazin-2-ylamino]-phenyl}-(4-methyl-piperazin-1-yl)-methanone] |  |  | < 100 | 100 to 1000
COc1cc(C2CCN(C[C@@H](O)CO)CC2)c(F)cc1Nc1ncc2ccc(-c3ccccc3OC)n2n1 [Example 550, (R)-3-(4-{2-Fluoro-5-methoxy-4-[7-(2-methoxy-phenyl)-pyrrolo[2,1-f][1,2,4]triazin-2-ylamino]-phenyl}-piperidin-1-yl)-propane-1,2-diol] | 100 to 1000 | < 100 |  | 
COc1cc(C2CCN(CC(=O)O)CC2)ccc1Nc1ncc2ccc(-c3ccccc3OC)n2n1 [Example 1278, (4-{3-Methoxy-4-[7-(2-methoxy-phenyl)-pyrrolo[2,1-f][1,2,4]triazin-2-ylamino]-phenyl}-piperidin-1-yl)-acetic acid] | 100 to 1000 | < 100 |  | 
COc1ccc(-c2ccc3cnc(Nc4ccc(C5CC6CCC(C5)N6C)cc4)nn23)cn1 (stereo not shown) [Example 944, [7-(6-Methoxy-pyridin-3-yl)-pyrrolo[2,1-f][1,2,4]triazin-2-yl]-[4-(8-methyl-8-aza-bicyclo[3.2.1]oct-3-yl)-phenyl]-amine] | < 100 | 100 to 1000 |  | 
COc1cc(N2CCCN(C[C@@H](C)O)CC2)ccc1Nc1ncc2ccc(-c3ccccc3N(C)S(C)(=O)=O)n2n1 [Example 772, N-[2-(2-{4-[4-((R)-2-Hydroxy-propyl)-[1,4]diazepan-1-yl]-2-methoxy-phenylamino}-pyrrolo[2,1-f][1,2,4]triazin-7-yl)-phenyl]-N-methyl-methanesulfonamide] | 100 to 1000 | < 100 |  | 
CN1CCN(c2ccc(Nc3ncc4ccc(-c5cccnc5)n4n3)cc2)CC1 [Example 27, [4-(4-Methyl-piperazin-1-yl)-phenyl]-(7-pyridin-3-yl-pyrrolo[2,1-f][1,2,4]triazin-2-yl)-amine] |  |  | < 100 | 100 to 1000
COc1cc(OC2CCN(C)CC2)ccc1Nc1ncc2ccc(-c3ccccc3OC)n2n1 [Example 998, [2-Methoxy-4-(1-methyl-piperidin-4-yloxy)-phenyl]-[7-(2-methoxy-phenyl)-pyrrolo[2,1-f][1,2,4]triazin-2-yl]-amine] | < 100 | < 100 |  | 
CN1CCOc2ccc(Nc3ncc4ccc(-c5cccc(NS(C)(=O)=O)c5)n4n3)cc21 [Example 643, N-{3-[2-(4-Methyl-3,4-dihydro-2H-benzo[1,4]oxazin-6-ylamino)-pyrrolo[2,1-f][1,2,4]triazin-7-yl]-phenyl}methanesulfonamide] | < 100 | 100 to 1000 |  | 
CC(C)(C)NS(=O)(=O)c1cccc(-c2ccc3cnc(Nc4cccc(N5CCCC5=O)c4)nn23)c1 [Example 1383, N-tert-Butyl-3-{2-[3-(2-oxo-pyrrolidin-1-yl)-phenylamino]-pyrrolo[2,1-f][1,2,4]triazin-7-yl}-benzenesulfonamide] |  |  | < 100 | 1000 to 10000
